These are literature values, as cited in patent US11517522B2, “Aprepitant ready-to-use injection emulsion compositions” (priority 2020, dated 2022).

Data set [1] relates to acute and delayed chemotherapy-induced nausea and vomiting. To be noted: versus aprepitant.
The conditions of data set [2]: IV infusion.
For data set [3] the following is noted: given orally; commercial nanoparticulate composition (Emend).

Turning to `C[C@@H](O[C@H]1OCCN(Cc2nc(O)n(P(=O)(O)O)n2)[C@H]1c1ccc(F)cc1)c1cc(C(F)(F)F)cc(C(F)(F)F)c1` [Fosaprepitant, fosaprepitant dimeglumine], in data set [1], the “comparison with aprepitant in prevention and control of acute and delayed chemotherapy-induced nausea and vomiting” value was “non-inferiority and bioequivalency”. The “time for conversion to aprepitant” value in data set [2] was “less than 30 minutes”.

As to `C[C@@H](O[C@H]1OCCN(Cc2n[nH]c(=O)[nH]2)[C@H]1c1ccc(F)cc1)c1cc(C(F)(F)F)cc(C(F)(F)F)c1` [Aprepitant, 5-([(2R, 3S)-2-((R)-1-[3,5-bis (trifluoromethyl)phenyl]ethoxy)-3-(4-fluoro-phenyl)morpholino]methyl)-1H-1,2,4-triazol-3(2H)-one], under “acetonitrile”, the solubility in acetonitrile entry is reported as “slightly soluble”. Also, under “ethanol”, the solubility in ethanol result is “sparingly soluble”. The “solubility in isopropyl acetate” value (isopropyl acetate) was “sparingly soluble”. Further, under “water”, the solubility in water result is on record as “practically insoluble”. Besides, the bioavailability in data set [3] is on record as 60-65%.
